Assay results: US5464617A, “β-lactam compounds” (Hoffmann-La Roche Inc., priority 1994, dated 1995)
In brackets after ≈: the same amount, converted by molar mass. Structures can show the parent of a compound that is named as a salt.

Experiments:
E. coli 1346 = experiment: Antibacterial activity of the products per se, serial dilution method in liquid medium (Test E); assay type: cell-based; details: Table 4; test E, product per se
Source text: The antibacterial activity of the products per se is illustrated on the basis of Table 3 hereinafter, the minimum inhibitory concentration […] in vitro against E. coli 1346 being determined using the serial dilution method in liquid medium: […]

[1] = tested on: Citrobacter freundii 1982; experiment: MIC in vitro of a 1:4 combination of ceftriaxone with a compound of formula I (Test D); assay type: cell-based; details: Table 4; test D, 1:4 combination of ceftriaxone with the compound
Protocol: The minimum inhibitory concentration in vitro ([…]) of a 1:4 combination of ceftriaxone with a compound of formula I against Citrobacter freundii 1982 was measured and compiled in Table 2 hereinafter.

Row | Compound | MIC E. coli 1346 (E) (E. coli 1346) [µg/mL] | MIC C. freundii 1982 (D) [1] [µg/mL]
1 | O=C(O)C1=C(CSc2ccncc2)S[C@@H]2CN[C@@H]3C(=O)N1[C@@H]32 [40(f), (1aS,3aR,6bS)-1-Oxo-5-(pyridin-4-ylsulphanylmethyl)-4-thia-1,1a,2,3,3a,6b-hexahydro-2,6a-diazacyclobut[cd]indene-6-carboxylic acid] | 32 (≈ 95.4 µM) | 2
2 | Cn1nnnc1SCC1=C(C(=O)O)N2C(=O)[C@@H]3[C@H]2[C@H](C1)CN3CC(=O)Nc1ccc(O)cc1 [61(b), (1aS,3aR,6bR)-2-(4-Hydroxy-phenylcarbamoylmethyl)-5-(1-methyl-1H-tetrazol-5-ylsulphanylmethyl)-1-oxo-1a,2,3,3a,4,6b-hexahydro-1H-2,6a-diazacyclobut[cd]indene-6-carboxylic acid sodium salt] | 16 | 2
3 | CC(=O)N1C[C@H]2CC(CSc3nnnn3CC(=O)Nc3ccc(O)cc3)=C(C(=O)O)N3C(=O)[C@@H]1[C@@H]23 [78(a), (1aS,3aR,6bR)-2-Acetyl-5-[1-(4-hydroxy-phenylcarbamoylmethyl)-1H-tetrazol-5-ylsulphanylmethyl]-1-oxo-1a,2,3,3a,4,6b-hexahydro-1H-2,6a-diazacyclobut[cd]indene-6-carboxylic acid sodium salt] | 1 | 0.5
4 | O=C(O)C1=C(CSc2nc[nH]n2)C[C@@H]2CN(C(=O)C(F)(F)F)[C@@H]3C(=O)N1[C@H]23 [76(b), (1aS,3aR,6bR)-1-Oxo-5-(1H-1,2,4-triazol-3-ylsulphanylmethyl)-2-trifluoroacetyl-1a,2,3,3a,4,6b-hexahydro-1H-2,6a-diazacyclobut[cd]indene-6-carboxylic acid sodium salt] | ≤ 0.25 | 0.5
5 | CC(=O)N1C[C@H]2CC(CSc3nc(-c4cccnc4)cs3)=C(C(=O)O)N3C(=O)[C@@H]1[C@@H]23 [67(a), (1aS,3aR,6bR)-2-Acetyl-1-oxo-5-(4-pyridin-3-yl-thiazol-2-ylsulphanylmethyl)-1a,2,3,3a,4,6b-hexahydro-1H-2,6a-diazacyclobut[cd]indene-6-carboxylic acid sodium salt] | 0.5 | 8
6 | NC(=O)Cn1nnnc1SCC1=C(C(=O)O)N2C(=O)[C@H]3NC[C@@H](C1)[C@H]32 [Example 69, (1aS,3aR,6 bR)-5-(1-Carbamoylmethyl-1H-tetrazol-5-ylsulphanylmethyl)-1-oxo-1a,2,3,3a,4,61>hexahydro-1H-2,6a-diazacyclobut[cd]indene-6-carboxylic acid trifluoroacetate] | 2 | 0.5
7 | Cc1nnc(SCC2=C(C(=O)[O-])N3C(=O)[C@@H]4[C@H]3[C@H](C2)CN4C(=O)C[n+]2cccc(C(N)=O)c2)s1 [65(d), (1aS,3aR,6bR)-2-(3-Carbamoyl-pyridin-1-ylioacetyl)-5-(5-methyl-1,3,4-thiadiazol-2-ylsulphanylmethyl)-1-oxo-1a,2,3,3a,4,6b-hexahydro-1H-2,6a-diazacyclobut[cd]indene-6-carboxylic acid sodium salt] | 16 | 2
8 | NC(=O)Cn1nnnc1SCC1=C(C(=O)O)N2C(=O)[C@@H]3[C@H]2[C@@H](CN3C=O)O1 [38(b), (1 aS ,3aR, 6 bS )-5-(1-Carbamoylmethyl-1H-tetrazol-5-yl-sulfanylmethyl)-2-formyl-1-oxo-1,1a,2,3,3a,6b-hexahydro-4-oxa-2,6a-diaza-cyclobut[cd]indene-6-carboxylic acid sodium salt] | 8 | 4
9 | NC(=O)CSC1=C(C(=O)O)N2C(=O)[C@H]3NC[C@@H](C1)[C@H]32 [Example 2(f), (1aS,3aR,6bR)-5-Carbamoylmethylsulphanyl-1-oxo-1a,2,3,3a,4,6b-hexahydro-1H-2,6a-diazacyclobut[cd]indene-6-carboxylic acid trifluoroacetate] | 8 | 2
10 | CC(=O)N1C[C@H]2CC(CSc3nnc(N)s3)=C(C(=O)O)N3C(=O)[C@@H]1[C@@H]23 [19(i), (1aS,3aR,6bR)-2-Acetyl-5-(5-amino-1,3,4-thiadiazol-2-ylsulphanylmethyl)-1-oxo-1a,2,3,3a,4,6b-hexahydro-1H-2,6a-diazacyclobut[cd]indene-6-carboxylic acid sodium salt] | 0.5 | 1
11 | O=C(O)C1=C(CSc2ccncc2)S[C@@H]2CN(C(=O)Nc3ccc(O)cc3)[C@@H]3C(=O)N1[C@@H]32 [41(b), (1aS,3aR,6bS)-2-(4-Hydroxy-phenylcarbamoyl)-1-oxo-5-(pyridin-4-ylsulphanylmethyl)-4-thia-1,1a,2,3,3a,6b-hexahydro-2,6a-diazacyclobut[cd]indene-6-carboxylic acid sodium salt] | > 32 | 4
12 | NC(=O)c1ccc(NC(=O)N2C[C@H]3CC(Sc4ccncc4)=C(C(=O)O)N4C(=O)[C@@H]2[C@@H]34)cc1 [3(n), (1aS,3aR,6bR)-2-(4-Carbamoyl-phenylcarbamoyl)-1-oxo-5-(pyridin-4-ylsulphanyl)-1a,2,3,3a,4,6b-hexahydro-1H-2,6a-diazacyclobut[cd]indene-6-carboxylic acid sodium salt] | > 32 | 1

More lines, now with the values ahead:

Row | MIC E. coli 1346 (E) (E. coli 1346) [µg/mL] | MIC C. freundii 1982 (D) [1] [µg/mL] | Compound
13 | > 32 | 1 | O=C(O)C1=C(CSc2ccncc2)O[C@@H]2CN(C(=O)Nc3ccc(O)cc3)[C@@H]3C(=O)N1[C@@H]32 [31(d), (1aS,3aR,6bS)-2-(4-Hydroxy-phenylcarbamoyl)-1-oxo-5-(pyridin-4-ylsulphanylmethyl)-1,1a,2,3,3a,6b-hexahydro-4-oxa-2,6a-diazacyclobut[cd]indene-6-carboxylicacid sodium salt]
14 | 2 | 2 | CC(=O)N1C[C@H]2CC(COC(=O)NC3CC3)=C(C(=O)O)N3C(=O)[C@@H]1[C@@H]23 [94(a), (1aS,3aR,6bR)-2-Acetyl-5-cyclopropylcarbamoyloxymethyl-1-oxo-1a,2,3,3a,4,6b-hexahydro-1H-2,6a-diazacyclobut[cd]indene-6-carboxylic acid sodium salt]
15 | 32 | 0.25 | Cn1nc(O)c(=O)nc1SCC1=C(C(=O)O)N2C(=O)[C@@H]3[C@H]2[C@H](C1)CN3C(=O)Nc1ccc(O)cc1 [Example 54, (1aS,3aR,6bR)-5-(2,5-Dihydro-6-hydroxy-2-methyl-5-oxo-1,2,4-triazin-3-ylsulphanylmethyl)-2-(4-hydroxy-phenylcarbamoyl)-1-oxo-1a,2,3,3a,4,6b-hexahydro-1H-2,6a-diazacydobut[cd]indene-6-carboxylic acid sodium salt (1:2)]
16 | > 32 | 2 | Cn1nc[n+](C)c1CSC1=C(C(=O)[O-])N2C(=O)[C@@H]3[C@H]2[C@H](C1)CN3C(=O)Nc1ccc(O)cc1 [3(q), (1aS,3aR,6bR)-5-[(1,4-Dimethyl-1H-1,2,4-triazol-5-ylio)methylsulphanyl]-2-(4-hydroxy-phenylcarbamoyl)-1-oxo-1a,2,3,3a,4,6b-hexahydro-1H-2,6a-diazacyclobut[cd]indene-6-carboxylate]
17 | 2 | 1 | Cc1nnc(SCC2=C(C(=O)O)N3C(=O)[C@@H]4[C@H]3[C@H](C2)CN4C(=O)CSc2ccncc2)s1 [65(c), (1aS,3aR,6 bR)-5-(S-Methyl-1,3,4-thiadiazol-2-ylsulphanylmethyl)-1-oxo-2-(pyridin-4-ylsulphanylacetyl)-1a,2,3,3a,4,6b-hexahydro-1H-2,6a-diazacyclobut[cd]indene-6-carboxylic acid sodium salt]
18 | 1 | 0.5 | Cn1nnnc1SCC1=C(C(=O)O)N2C(=O)[C@H]3NC[C@@H](O1)[C@H]32 [Example 29(e), (1aS,3aR,6bS)-5-(1-Methyl-1H-tetrazol-5-ylsulphanylmethyl)-1-oxo-1,1a,2,3,3a,6b-hexahydro-4-oxa-2,6a-diazacyclobut[cd]indene-6-carboxylic acid sodium salt]
19 | 2 | 1 | O=C([O-])C[n+]1ccc(SCC2=C(C(=O)O)N3C(=O)[C@@H]4[C@H]3[C@H](C2)CN4C(=O)C(F)(F)F)cc1 [Example 52(b), (1aS,3aR,6bR)-[4-(2-Trifluoroacetyl-6-carboxy-1-oxo-1a,2,3,3a,4,6b-hexahydro-1H-2,6a-diazacyclobut[cd]inden-5-ylmethylsulphanyl)-pyridin-1-ylio]-acetate sodium salt]
20 | 8 | 0.5 | Cc1nnc(SCC2=C(C(=O)O)N3C(=O)[C@@H]4[C@H]3[C@H](C2)CN4C(=O)CSCC(N)=O)s1 [65(g), (1aS,3aR,6bR)-2-Carbamoylmethylsulphanylacetyl-5-(5-methyl-1,3,4-thiadiazol-2-ylsulphanylmethyl)-1-oxo-1a,2,3,3a,4,6b-hexahydro-1H-2,6a-diazacyclobut[cd]indene-6-carboxylic acid sodium salt]
21 | 16 | 2 | CC(=O)NCC1=C(C(=O)O)N2C(=O)[C@@H]3[C@H]2[C@H](C1)CN3C(=O)C(F)(F)F [Example 86, (1aS,3aR,6bR)-5-Acetylaminomethyl-1-oxo-2-trifluoroacetyl-1a,2,3,3a,4,6b-hexahydro-1H-2,6a-diazacyclobut[cd]indene-6-carboxylic acid sodium salt]
